Results on one compound are retold here after patent publication US20100168176A1, “NOVEL COMPOUNDS, PHARMACEUTICAL COMPOSITIONS CONTAINING SAME, AND METHODS OF USE FOR SAME” (FASGEN LLC, priority 2006, published 2010).

The nature of the assay: Weight loss screen in Balb/C mice. It counts as in vivo. As to conditions: 60 mg/kg intraperitoneally, day 1. How it is done:
Weight Loss Screen for Novel FAS Inhibitors
Balb/C mice (Jackson Labs) are utilized for the initial weight loss screening. Animals are housed in temperature and 12 hour day/night cycle rooms and fed mouse chow and water ad lib. Three mice are utilized for each compound tested with vehicle controls in triplicate per experiment. For the experiments, mice are housed separately for each compound tested three mice to a cage. Compounds are diluted in DMSO at 10 mg/ml and mice are injected intraperitoneally with 60 mg/kg in approximately 100 μl of DMSO or with vehicle alone. Mice are observed and weighed daily; average weights and standard errors are computed with Excel (Microsoft). The experiment continues until treated animals reach their pretreatment weights.

Turning to `CCCCCCCCC1(C)SC(=O)C=C1OCC(=O)NNc1ccccc1Cl` (stereo not shown) [Compound 19, (5-Methyl-5-octyl-2-oxo-thiophen-4-yloxy)-acetic-acid-N′-(2-chlorophenyl)-hydrazide], the “Weight Loss” value was 60 mg/kg: +3.0% (day 1).
